The results in this text go back to ChEMBL document CHEMBL1123869, “N,N-dialkylated leucine enkephalins as potential delta opioid receptor antagonists” (1987).

Peptide text beside a SMILES is read from it. * marks the point of attachment. Tyr(Nα,Nα-Bn2) = O=C([C@H](Cc1ccc(O)cc1)N(Cc1ccccc1)Cc1ccccc1)*; Tyr(Nα,Nα-allyl2) = C=CCN(CC=C)[C@@H](Cc1ccc(O)cc1)C(=O)*; X4 = O=C([C@H](Cc1ccc(O)cc1)N(CCc1ccccc1)CCc1ccccc1)*; X5 = CCCCCCCCN(CCCCCCCC)[C@@H](Cc1ccc(O)cc1)C(=O)*; X3 = O=C([C@H](Cc1ccc(O)cc1)N(CC1CC1)CC1CC1)*; X1 = CCCCCN(CCCCC)[C@@H](Cc1ccc(O)cc1)C(=O)*; X2 = CCCN(CCC)[C@@H](Cc1ccc(O)cc1)C(=O)*

For one test, the species on record is Cavia porcellus. Put plainly: Agonistic activity was measured on the electrically stimulated longitudinal muscle of the guinea pig ileum (GPI) at 1 uM concentration. The following applies: Muscle tissue.
For a further test, the species on record is Mus musculus. Put plainly: Agonistic activity was measured on the electrically stimulated longitudinal muscle of the mouse vas deferens (MVD) at 1 uM concentration. Particulars: Muscle tissue.

Broadly, the inhibition is the drop in the measured response relative to a control, in per cent. `CCCCCN(CCCCC)[C@@H](Cc1ccc(O)cc1)C(=O)NCC(=O)NCC(=O)N[C@@H](Cc1ccccc1)C(=O)N[C@@H](CC(C)C)C(=O)O` (X1-GGFL-OH): the results for the inhibition at 1 µM in the test listed under Cavia porcellus and in the test filed under Mus musculus were 15.9% and 20.4%, respectively.

`CCCN(CCC)[C@@H](Cc1ccc(O)cc1)C(=O)NCC(=O)NCC(=O)N[C@@H](Cc1ccccc1)C(=O)N[C@@H](CC(C)C)C(=O)O` (X2-GGFL-OH): the inhibition at 1 µM is -2.6% in the test listed under Cavia porcellus and 11.9% in the test listed under Mus musculus.

Consider `CC(C)C[C@H](NC(=O)[C@H](Cc1ccccc1)NC(=O)CNC(=O)CNC(=O)[C@H](Cc1ccc(O)cc1)N(CC1CC1)CC1CC1)C(=O)O` (X3-GGFL-OH), for which the figures for the inhibition at 1 µM in the test listed under Cavia porcellus and in the test listed under Mus musculus were 2.2% and 27.3%, respectively.

Consider `CC(C)C[C@H](NC(=O)[C@H](Cc1ccccc1)NC(=O)CNC(=O)CNC(=O)[C@H](Cc1ccc(O)cc1)N(CCc1ccccc1)CCc1ccccc1)C(=O)O` (X4-GGFL-OH), for which the inhibition at 1 µM in the test listed under Cavia porcellus amounted to 14.7%; in the test listed under Mus musculus, 60.5%.

`CCCCCCCCN(CCCCCCCC)[C@@H](Cc1ccc(O)cc1)C(=O)NCC(=O)NCC(=O)N[C@@H](Cc1ccccc1)C(=O)N[C@@H](CC(C)C)C(=O)O` (X5-GGFL-OH): the inhibition at 1 µM in the test filed under Cavia porcellus turned out to be 8.1%; in the test listed under Mus musculus, 39.2%.

`CC(C)C[C@H](NC(=O)[C@H](Cc1ccccc1)NC(=O)CNC(=O)CNC(=O)[C@H](Cc1ccc(O)cc1)N(Cc1ccccc1)Cc1ccccc1)C(=O)O` ({Tyr(Nα,Nα-Bn2)}-GGFL-OH): the inhibition at 1 µM was found to be 1.9% in the test listed under Cavia porcellus and 11.4% in the test filed under Mus musculus.

For `C=CCN(CC=C)[C@@H](Cc1ccc(O)cc1)C(=O)NCC(=O)NCC(=O)N[C@@H](Cc1ccccc1)C(=O)N[C@@H](CC(C)C)C(=O)O` ({Tyr(Nα,Nα-allyl2)}-GGFL-OH), the inhibition at 1 µM in the test filed under Cavia porcellus is -6.7%; in the test filed under Mus musculus, 10%.
